Measurements taken from US7118895B2, “Process for producing aglycon by using diglycosidase and flavor-improved food containing the aglycon and converting agent to be used in the process” (Amano Enzyme Inc., priority 2000, dated 2006).

Key:
Experiment in all cases: Reactivity toward various isoflavone glycosides (HPLC)
[1] = tested on: Diglycosidase derived from P. multicolor; format: biochemical, Penicillium multicolor; set-up: glucoside / aglycon: unit not given here; conditions: for aglycon / glucoside: 55 °C, pH 4.0
Experimental: (§1) Diglycosidase was diluted with an acetate buffer of pH 4.0 to prepare a 0.75 AU/mL enzyme solution. As references, a similar operation was conducted using β-glucosidase (manufactured by Fluka) derived from Aspergillus niger, β-glucosidase (manufactured by Sigma) derived from almond, β-xylosidase derived from pectinase G (manufactured by Amano Enzyme Inc.). Each of purified products of isoflavone glycosides (glycitin, acetylglycitin, malonylglycitin, daidzin, acetyldaidzin, malonyldaidzin, genistin, acetylgenistin, malonylgenistin, all manufactured by Nacalai Tesque, Inc.) was dissolved in methanol to prepare each 2 mM substrate solution. The reaction was carried out by mixing 10 μL of a substrate solution, 200 μL of 20 mM acetate buffer (pH 4.0), and 40 μL of each purified enzyme solution at a total liquid volume of 250 μL. The reaction was carried out at 55° C. and isolation of an aglycon isoflavone from an isoflavone glycoside in the reaction mixture was detected by HLPC at 0, 1, 3, and 6 hours of the reaction.
(§2) To the reaction mixture was added 700 μL of ethanol, followed by stirring and ultrasonication. After centrifugation at 15,000 rpm and 4° C. for 10 minutes, the supernatant was filtered through a filter and then the filtrate was applied to HPLC.
(§3) The isoflavone glycoside and aglycon isoflavone contained in the filtrate was separated and detected by a high performance liquid chromatography (HPLC, Shimadzu CLASS LC-10 system) using TOSOH TSK gel ODS-80TM column (manufactured by Tosoh Corporation). […] The absorbance at 260 nm was detected by a UV detector (Shimadzu, SPD-10AV). Using purified products (manufactured by Nacalai Tesque, Inc.) of the above isoflavone glycosides and aglycon isoflavones, the isoflavone glycoside and aglycon isoflavone were quantitatively determined according to a calibration curve method. By the way, unless otherwise stated, the measuring conditions of HPLC herein mean those described in the example.

[2] = tested on: Diglycosidase derived from A. fumigatus; format: biochemical, Aspergillus fumigatus; set-up: unit not given here; conditions: 55 °C, pH 4.0
Experimental: as §1, §2, §3

[3] = tested on: β-Glucosidase derived from A. niger; format: biochemical, Aspergillus niger; set-up: glucoside / aglycon: unit not given here; conditions: 55 °C, pH 4.0
Experimental: as §1, §2, §3

| Structure (SMILES) | aglycon ([1]; Reaction time 0 h) | glucoside ([1]; Reaction time 0 h) | aglycon ([1]; Reaction time 1 h) | glucoside ([1]; Reaction time 1 h) | aglycon ([1]; Reaction time 3 h) | glucoside ([1]; Reaction time 3 h) | aglycon ([1]; Reaction time 6 h) | glucoside ([1]; Reaction time 6 h) | aglycon ([2]; Reaction time 0 h) | glucoside ([2]; Reaction time 0 h) | aglycon ([2]; Reaction time 1 h) | glucoside ([2]; Reaction time 1 h) | aglycon ([2]; Reaction time 3 h) | glucoside ([2]; Reaction time 3 h) | aglycon ([2]; Reaction time 6 h) | glucoside ([2]; Reaction time 6 h) | aglycon ([3]; Reaction time 0 h) | glucoside ([3]; Reaction time 0 h) | aglycon ([3]; Reaction time 1 h) | glucoside ([3]; Reaction time 1 h) | further results |
| --- | --- | --- | --- | --- | --- | --- | --- | --- | --- | --- | --- | --- | --- | --- | --- | --- | --- | --- | --- | --- | --- |
| COc1cc2c(=O)c(-c3ccc(O)cc3)coc2cc1O[C@@H]1O[C@H](COC(=O)CC(=O)O)[C@@H](O)[C@H](O)[C@H]1O [malonylglycitin, 6″-O-malonylglycitin] | 0 | 100 | 78.3 | 21.7 | 84.5 | 15.5 | 86 | 14 | 0 | 100 | 0.4 | 99.6 | 0.8 | 99.2 | 1.4 | 98.6 | 0 | 100 | 1.2 | 98.8 | aglycon ([3]; Reaction time 3 h): 4.4; glucoside ([3]; Reaction time 3 h): 95.6; aglycon ([3]; Reaction time 6 h): 9.1; glucoside ([3]; Reaction time 6 h): 90.9 |
| COc1cc2c(=O)c(-c3ccc(O)cc3)coc2cc1O[C@@H]1O[C@H](COC(C)=O)[C@@H](O)[C@H](O)[C@H]1O [acetylglycitin, 6″-O-acetylglycitin] | 0 | 100 | 98 | 2 | 97.9 | 2.1 | 97.5 | 2.5 | 0 | 100 | 6 | 94 | 13.5 | 86.5 | 22.7 | 77.3 | 0 | 100 | 0 | 100 | aglycon ([3]; Reaction time 3 h): 1; glucoside ([3]; Reaction time 3 h): 99; aglycon ([3]; Reaction time 6 h): 1.9; glucoside ([3]; Reaction time 6 h): 98.1 |
| O=C(O)CC(=O)OC[C@H]1O[C@@H](Oc2ccc3c(=O)c(-c4ccc(O)cc4)coc3c2)[C@H](O)[C@@H](O)[C@@H]1O [malonyldaidzin, 6″-O-malonyldaidzin] | 0 | 100 | 50.8 | 49.2 | 60.1 | 39.9 | 61.5 | 38.5 | 0 | 100 | 10 | 90 | 20.5 | 79.5 | 32.3 | 67.7 | 0 | 100 | 4.5 | 95.5 | aglycon ([3]; Reaction time 3 h): 9.3; glucoside ([3]; Reaction time 3 h): 90.7; aglycon ([3]; Reaction time 6 h): 16; glucoside ([3]; Reaction time 6 h): 84 |
| O=C(O)CC(=O)OC[C@H]1O[C@@H](Oc2cc(O)c3c(=O)c(-c4ccc(O)cc4)coc3c2)[C@H](O)[C@@H](O)[C@@H]1O [malonylgenistin, 6″-O-malonylgenistin] | 0 | 100 | 74.2 | 25.8 | 82.1 | 17.9 | 82.3 | 17.7 | 0 | 100 | 2.4 | 97.6 | 5.2 | 94.8 | 8.2 | 91.8 | 0 | 100 | 3.1 | 96.9 | aglycon ([3]; Reaction time 3 h): 7; glucoside ([3]; Reaction time 3 h): 93; aglycon ([3]; Reaction time 6 h): 12.1; glucoside ([3]; Reaction time 6 h): 87.9 |
| O=c1c(-c2ccc(O)cc2)coc2cc(O[C@@H]3O[C@H](CO)[C@@H](O)[C@H](O)[C@H]3O)ccc12 [daidzin] | 0.9 | 99.1 | 70.1 | 29.9 | 81.8 | 18.2 | 88.5 | 11.5 | 0.9 | 99.1 | 7.1 | 92.9 | 14.7 | 85.3 | 24.8 | 75.2 | 0 | 100 | 100 | 0 | reactivity of β-glucosidase derived from Aspergillus niger (in words) [3]: act well; aglycon ([3]; Reaction time 3 h): 100; glucoside ([3]; Reaction time 3 h): 0; aglycon ([3]; Reaction time 6 h): 100; glucoside ([3]; Reaction time 6 h): 0 |
| CC(=O)OC[C@H]1O[C@@H](Oc2cc(O)c3c(=O)c(-c4ccc(O)cc4)coc3c2)[C@H](O)[C@@H](O)[C@@H]1O [acetylgenistin, 6″-O-acetylgenistin] | 0 | 100 | 99.8 | 0.2 | 99.9 | 0.1 | 99.8 | 0.2 | 0 | 100 | 12.6 | 87.4 | 22.9 | 77.1 | 35.2 | 64.8 | 0 | 100 | 1.4 | 98.6 | aglycon ([3]; Reaction time 3 h): 3.3; glucoside ([3]; Reaction time 3 h): 96.7; aglycon ([3]; Reaction time 6 h): 6.2; glucoside ([3]; Reaction time 6 h): 93.8 |
| CC(=O)OC[C@H]1O[C@@H](Oc2ccc3c(=O)c(-c4ccc(O)cc4)coc3c2)[C@H](O)[C@@H](O)[C@@H]1O [acetyldaidzin, 6″-O-acetyldaidzin] | 0 | 100 | 89.6 | 10.4 | 96.2 | 3.8 | 96.2 | 3.8 | 0 | 100 | 26.1 | 73.9 | 47.2 | 52.8 | 66.5 | 33.5 | 0 | 100 | 4.4 | 95.6 | aglycon ([3]; Reaction time 3 h): 6.4; glucoside ([3]; Reaction time 3 h): 93.6; aglycon ([3]; Reaction time 6 h): 9; glucoside ([3]; Reaction time 6 h): 91 |
| COc1cc2c(=O)c(-c3ccc(O)cc3)coc2cc1O[C@@H]1O[C@H](CO)[C@@H](O)[C@H](O)[C@H]1O [glycitin] | 0 | 100 | 97.9 | 2.1 | 99.8 | 0.2 | 99.7 | 0.3 | 0 | 100 | 0.5 | 99.5 | 0 | 100 | 0 | 100 | 0 | 100 | 49.5 | 50.5 | reactivity of β-glucosidase derived from Aspergillus niger (in words) [3]: act well; aglycon ([3]; Reaction time 3 h): 88.3; glucoside ([3]; Reaction time 3 h): 11.7; aglycon ([3]; Reaction time 6 h): 95.5; glucoside ([3]; Reaction time 6 h): 4.5 |
| O=c1c(-c2ccc(O)cc2)coc2cc(O[C@@H]3O[C@H](CO)[C@@H](O)[C@H](O)[C@H]3O)cc(O)c12 [genistin] | 0 | 100 | 0 | 100 | 0 | 100 | 0 | 100 | 0 | 100 | 0 | 100 | 0 | 100 | 0 | 100 | 0 | 100 | 100 | 0 | efficiency of decomposing by diglycosidase with combined use of β-glucosidase ([1]; combined use of β-glucosidase in addition to the enzyme): further enhanced; reactivity of β-glucosidase derived from Aspergillus niger (in words) [3]: act well; aglycon ([3]; Reaction time 3 h): 100; glucoside ([3]; Reaction time 3 h): 0; aglycon ([3]; Reaction time 6 h): 100; glucoside ([3]; Reaction time 6 h): 0 |
